The values below come from patent US4698350A, “1-ethyl-6-fluoro-1,4-dihydro- 7-(2,6-dimethyl-4-pyridinyl)-4-oxo-3-quinolinecarboxylic acid and antibacterial use thereof” (Sterling Drug Inc., priority 1984, dated 1987).

One test has as its system A. actinomycetemcomitans. The test is described as follows: Agar dilution MIC, anaerobic microorganisms. Type of test: cell-based. The following applies: Aggregatibacter actinomycetemcomitans, 48 h. The procedure:
(§1) 1. Maintenance. Prior to use, all strains were maintained in the lyophilized state. During the study, cultures were examined on blood agar basal medium supplemented with 5.0% (v/v) defibrinated rabbit blood. Culture transfer was accomplished weekly with all cultures being incubated in an anaerobic atmosphere (GasPak jar; BBL).
(§2) 2. Agar Medium. The basal test medium consisted of trypticase soy agar (40 g), yeast extract (1 g), glucose (2 g) and 960 ml of distilled water pH 7.2. [Mashimo et al., J. Clin. Micro. 17, 187-191 (1983)]. Subsequent to sterilization and cooling to 50° C., the medium was supplemented with 4% (v/v) defibrinated rabbit blood and 0.5 μg/ml menadione (Vitamin K3) The agent under evaluation was also added at this time to the concentration desired. Subsequent to pouring of the plates, they were permitted to dry at 4° C. for 24 hr.
(§3) 3. Determination of Agent MIC. The minimal inhibitory concentration (MIC) of the various test agents was determined using an agar dilution technique. Agents and appropriate reference compounds were added to achieve a series of concentrations ranging between 32 μg/ml and 0.007 μg/ml. The inocula were prepared from 96-hr. cultures grown on the maintenance medium. Subsequent to a purity evaluation, colonies were removed and suspended in trypticase soy broth supplemented with 5 μg/ml menadione and 2% lysed rabbit blood filtrate to achieve an OD650 of 0.1 (this corresponded to approximately 10^8 cells/ml). Cultures were inoculated aerobically on the modified trypticase soy blood agar plates by use of a Steer's replicator (which delivers about 10^5 cells per spot). The plates were allowed to dry for a time not exceeding 30 min. and then incubated at 37° C. under an atmosphere of […], 10% H2 and 5% CO2 maintained in an anaerobic chamber (Coy Manufacturing Co.) for 48 hr. The MIC was defined as the lowest concentration completely inhibiting growth.
(§4) Tetracycline stock solutions (1 mg/ml) were made subsequent to dissolution in water. Stock solutions (1 mg/ml) of the remaining test compounds were made subsequent to dissolution in 1/10 N NaOH.
For orientation: Agar dilution tests growth on a series of plates holding different concentrations.

Another test deals with A. viscosus. As to the kind of experiment: Agar dilution MIC, anaerobic microorganisms. The class given is cell-based. The following applies: Actinomyces viscosus, 48 h. Here is the method: as §1, §2, §3, §4
The subject of the next test is B. fragilis. The test is described as follows: Agar dilution MIC, anaerobic microorganisms. The conditions noted are these: Bacteroides fragilis, 48 h. The class given is cell-based. Here is the method: as §1, §2, §3, §4
The subject of another test is B. gingivalis. As to the kind of experiment: Agar dilution MIC, anaerobic microorganisms. Type of test: cell-based. The conditions noted are these: Porphyromonas gingivalis, 48 h. Here is the method:
as §1, §2, §3, §4

In another test the test system is B. intermedius. As to the kind of experiment: Agar dilution MIC, anaerobic microorganisms. The class given is cell-based. The conditions noted are these: Prevotella intermedia, 48 h. Here is the method:
as §1, §2, §3, §4

For another test, the system named is B. melaninogenicus. The test is described as follows: Agar dilution MIC, anaerobic microorganisms. Type of test: cell-based. The conditions noted are these: 48 h. Here is the method:
as §1, §2, §3, §4

Another test has as its system B. oralis. The test is described as follows: Agar dilution MIC, anaerobic microorganisms. The following applies: Hoylesella oralis, 48 h. The class given is cell-based. The procedure:
as §1, §2, §3, §4

The next test concerns Capnocytophaga suptigena. As to the kind of experiment: Agar dilution MIC, anaerobic microorganisms. Type of test: cell-based. The conditions noted are these: 48 h. Here is the method:
as §1, §2, §3, §4

Another test has as its system Eikenella corrodens. As to the kind of experiment: Agar dilution MIC, anaerobic microorganisms. The class given is cell-based. The following applies: 48 h. The procedure:
as §1, §2, §3, §4

Another test deals with F. nucleatum. As to the kind of experiment: Agar dilution MIC, anaerobic microorganisms. Type of test: cell-based. The conditions noted are these: Fusobacterium nucleatum, 48 h. The procedure: as §1, §2, §3, §4
The subject of the next test is F. polymorphum. The test is described as follows: Agar dilution MIC, anaerobic microorganisms. Type of test: cell-based. The conditions noted are these: 48 h. Here is the method:
as §1, §2, §3, §4

The next test concerns periodontal diseases. The conditions noted are these: cited from earlier work; for usefulness in treating periodontal disease (in words): Genco 1981.
For another test, the system named is Campylobacter sputorum. The test is described as follows: Agar dilution MIC, anaerobic microorganisms. The following applies: 48 h. The class given is cell-based. The procedure:
as §1, §2, §3, §4

The next test deals with Wolinella recta. The test is described as follows: Agar dilution MIC, anaerobic microorganisms. Type of test: cell-based. The following applies: Campylobacter rectus, 48 h. The procedure:
as §1, §2, §3, §4

Test [1] has as its system all thirteen of the target anaerobic microorganisms. The test is described as follows: Antimicrobial activity against anaerobic microorganisms. The class given is cell-based. The procedure: as §1, §2, §3, §4
Where [2] appears, read: A. actinomycetemcomitans, read-out: MIC.
Where [3] appears, read: B. melaninogenicus, read-out: MIC.
The mark [4] stands for this setting: Capnocytophaga suptigena, read-out: MIC.

In brackets after ≈: the same amount, converted by molar mass. Where two headings read alike, the source gives them in different places. A value given as a limit tells only on which side of the number the result lay.

For `CN(C)C1C(=O)C(C(N)=O)=C(O)C2(O)C(=O)C3=C(O)c4c(O)cccc4C(C)(O)C3CC12` (centres unmarked) [9,424], the MIC against A. actinomycetemcomitans worked out at 1 µg/mL (≈ 2.25 µM); against A. viscosus, 2 µg/mL (≈ 4.5 µM); in the test on B. fragilis it was 1 µg/mL (≈ 2.25 µM); in the test with B. gingivalis, 0.12 µg/mL (≈ 0.27 µM); against B. intermedius, 2 µg/mL (≈ 4.5 µM); against B. melaninogenicus, 0.5 µg/mL (≈ 1.13 µM). Moreover, the MIC came out at 0.12 µg/mL (≈ 0.27 µM) against B. oralis; 1 µg/mL (≈ 2.25 µM) with Capnocytophaga suptigena (Capnocytophaga); 2 µg/mL (≈ 4.5 µM) against Eikenella corrodens; 0.75 µg/mL (≈ 1.69 µM) against F. nucleatum; 0.12 µg/mL (≈ 0.27 µM) with F. polymorphum. Further, the “usefulness in treating periodontal disease (in words)” value in the test on periodontal diseases is listed as “particularly useful”. In the test on periodontal diseases, the “activity against microorganisms considered to participate in periodontal disease (in words)” value is “not active against all the microorganisms”.
For the compound `Cc1ncc([N+](=O)[O-])n1CCO` [metronidazole], in the test on periodontal diseases, the “usefulness in treating periodontal disease (in words)” value is listed as “particularly useful” and the “activity against microorganisms considered to participate in periodontal disease (in words)” value was “not active against all the microorganisms”.
With `CCn1cc(C(=O)O)c(=O)c2cc(F)c(N3CCN(C)CC3)cc21` [50,150, 1-ethyl-6-fluoro-1,4-dihydro-7-(4-methyl-1-piperazinyl)-4-oxo-3-quinolinecarboxylic acid], the MIC in the test on A. actinomycetemcomitans (setting [2]) is 0.06 µg/mL (≈ 0.18 µM); in the test with A. viscosus (A. viscosus, read-out: MIC), > 10 µg/mL; with B. fragilis (B. fragilis, read-out: MIC), 8 µg/mL (≈ 24 µM); in the test with B. gingivalis (B. gingivalis, read-out: MIC), 4 µg/mL (≈ 12 µM); in the test with B. intermedius (B. intermedius, read-out: MIC), 0.5 µg/mL (≈ 1.5 µM); with B. melaninogenicus (setting [3]), 4 µg/mL (≈ 12 µM). The MIC came to 4 µg/mL (≈ 12 µM) with B. oralis (B. oralis, read-out: MIC); 4 µg/mL (≈ 12 µM) against Campylobacter sputorum; 0.25 µg/mL (≈ 0.75 µM) in the test on Capnocytophaga suptigena (setting [4]); 4 µg/mL (≈ 12 µM) in the test on Eikenella corrodens (read-out: MIC); 8 µg/mL (≈ 24 µM) in the test on F. nucleatum (F. nucleatum, read-out: MIC); 8 µg/mL (≈ 24 µM) with F. polymorphum (F. polymorphum, read-out: MIC). For the same compound, the MIC in the test with Wolinella recta came out at 0.25 µg/mL (≈ 0.75 µM). Also, the “antimicrobial activity (in words)” value in test [1] was “less active”.
On to `CCn1cc(C(=O)O)c(=O)c2ccc(-c3ccncc3)cc21` [35,213, 1-ethyl-1,4-dihydro-4-oxo-7-(4-pyridinyl)-3-quinolinecarboxylic acid], for which the MIC with A. actinomycetemcomitans (setting [2]) was 0.12 µg/mL (≈ 0.408 µM); with A. viscosus (A. viscosus, read-out: MIC), > 10 µg/mL; in the test on B. fragilis (B. fragilis, read-out: MIC) it was > 10 µg/mL; in the test on B. gingivalis (B. gingivalis, read-out: MIC), > 10 µg/mL; in the test on B. intermedius (B. intermedius, read-out: MIC), 0.5 µg/mL (≈ 1.7 µM); with B. melaninogenicus (setting [3]), 8 µg/mL (≈ 27.2 µM). Moreover, the MIC is > 10 µg/mL with B. oralis (B. oralis, read-out: MIC); > 10 µg/mL in the test with Campylobacter sputorum; 1 µg/mL (≈ 3.4 µM) with Capnocytophaga suptigena (setting [4]); 8 µg/mL (≈ 27.2 µM) in the test on Eikenella corrodens (read-out: MIC); > 10 µg/mL in the test on F. nucleatum (F. nucleatum, read-out: MIC); > 10 µg/mL with F. polymorphum (F. polymorphum, read-out: MIC). This compound also registered an MIC against Wolinella recta of 0.5 µg/mL (≈ 1.7 µM).
For the compound `CCn1cc(C(=O)O)c(=O)c2cc(F)c(N3CCNCC3)cc21` [50,297, 1-ethyl-6-fluoro-1,4-dihydro-4-oxo-7-(1-piperazinyl)-3-quinolinecarboxylicacid], the MIC in the test on A. actinomycetemcomitans (setting [2]) is 0.06 µg/mL (≈ 0.188 µM); in the test on A. viscosus (A. viscosus, read-out: MIC), > 10 µg/mL; in the test on B. fragilis (B. fragilis, read-out: MIC) it was > 10 µg/mL; with B. gingivalis (B. gingivalis, read-out: MIC) it was 4 µg/mL (≈ 12.5 µM); in the test on B. intermedius (B. intermedius, read-out: MIC), 0.5 µg/mL (≈ 1.57 µM); with B. melaninogenicus (setting [3]), 4 µg/mL (≈ 12.5 µM). In addition, the MIC was 4 µg/mL (≈ 12.5 µM) in the test on B. oralis (B. oralis, read-out: MIC); 2 µg/mL (≈ 6.26 µM) against Campylobacter sputorum; 0.5 µg/mL (≈ 1.57 µM) with Capnocytophaga suptigena (setting [4]); 4 µg/mL (≈ 12.5 µM) in the test with Eikenella corrodens (read-out: MIC); 8 µg/mL (≈ 25.1 µM) in the test on F. nucleatum (F. nucleatum, read-out: MIC); > 10 µg/mL with F. polymorphum (F. polymorphum, read-out: MIC). In the test on Wolinella recta, the MIC is 0.12 µg/mL (≈ 0.376 µM). In test [1], the “antimicrobial activity (in words)” value is “less active”.
